Structures can show the parent of a compound that is named as a salt. Where two headings read alike, the source gives them in different places.
Tests used:
rats [1] = settings: ip, […]
Method: (§1) The assays were carried out within the Epilepsy Therapy Screening Program (ETSP, previously known as the Anticonvulsant Screening Program, ASP), Epilepsy Branch, National Institute of Neurological and Communicative Disorders and Stroke, National Institutes of Health in Rockville, MD, USA [23].

mice = test: Rotarod test (neurotoxicity); type: in vivo; settings: ip, […];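 also: in vivo neurotoxicity screen run within the NIH Epilepsy Therapy Screening Program (ETSP, formerly Anticonvulsant Screening Program)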
Method: as §1
(§2) The obtained compounds were screened for antiseizure activity and neurotoxicity in vivo within the Epilepsy Therapy Screening Program (ETSP, previously known as the Anticonvulsant Screening Program, ASP), Epilepsy Branch, National Institute of Neurological and Communicative Disorders and Stroke, National Institutes of Health in Rockville, MD, USA [23].

rats [2] = type: in vivo; settings: ip
[3] = Rotarod test (neurotoxicity); type: in vivo, mice; settings: mouse, in vivo; mice, ip, 0.25 h;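 also: in vivo neurotoxicity screen run within the NIH Epilepsy Therapy Screening Program (ETSP, formerly Anticonvulsant Screening Program)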
Method: as §1, §2

STZ-treated mice = test: Streptozotocin-induced diabetic neuropathy, von Frey test; type: in vivo; settings: for elevation of pain threshold (von Frey): STZ-treated mice
Method: Induction of diabetes. To induce diabetes the mice were injected with a single ip streptozotocin (STZ, Sigma-Aldrich, Germany) dose (200 mg/kg) dissolved in 0.1 N citrate buffer. Blood glucose levels were measured 1 h before and repeatedly 1, 2 and 3 weeks after STZ injection using a blood glucose monitoring system (AccuChek Active, Roche, France). Blood samples (5 µL) for the measurement of glucose concentration were obtained from the mouse tail vein. The animals were defined as diabetic when their blood glucose concentration exceeded 300 mg/dL and only those mice were used as diabetic mice in further tests. The body weight of mice was monitored 1 h before and 21 days after STZ injection.
Assessment of tactile allodynia in STZ-treated mice—von Frey test. Mechanical hyperalgesia was tested as previously described in detail [25] using the electronic von Frey device (Bioseb, France). Briefly, in a quiet room, mice were placed in test compartments on an elevated metal mesh grid and allowed to acclimate for 30 min. After a habituation period each mouse was tested 3 times in the plantar region of hind paw, to obtain baseline values. Subsequently, the mice were pre-treated with the tested compound dissolved in saline at doses 1, 10 and 30 mg/kg. Thirty minutes later the animals were tested again and mean values of mechanical withdrawal threshold were obtained for each mouse.

hNav1.4 sodium channel = molecular target: T1, hNav1.4 sodium channel (Homo sapiens, UniProt P35499); test: Nav channel electrophysiology (IonWorks Quattro); type: cell-based
T1 construct: host or cells: CHO cells

[4] = Pharmacokinetics in plasma; type: in vivo, rats; settings: for bioavailability / AUC(0-t) / C0 / MRT / clearance / Vd / k el / CL/F / Cmax / Tmax / Vd/F: male, Wistar, rat, plasma; for bioavailability: po; for bioavailability / AUC(0-t) / C0 / MRT / clearance / Vd / k el / CL/F / Cmax / Tmax / Vd/F / t0.5λz: rats; for Vd: read-out: Vz; for k el: read-out: λz (converted); for Vd/F: read-out: Vz/F
Method: Pharmacokinetic study design. Male Wistar rats (250–300 g) bred in-house from progenitors obtained from Charles River Laboratories (Sulzfed, Germany) were used in this study. Animals were fasted overnight prior to drug administration but had free access to water. […] Moreover, this compound dissolved in the same solvent was administered orally (po) by oral gavage at two doses (50 and 100 mg/kg) (n = 4). Blood samples were collected from the catheter at various time points up to 5 h. […] The animals were anaesthetized (50/7.5 mg/kg ketamine/xylazine, ip) and sacrificed by decapitation at 5, 15, 30, 60, 120, 180, and 300 min after compound administration (n = 4 per time point). Blood was collected into heparinized tubes and organs such as liver, brain, lungs, kidneys, and heart were harvested. The blood samples were centrifuged at 4000 rpm for 10 min (EBA 12R, Hettich, Germany). Plasma and organs were stored at − 80 °C until analysis.
Determination of KM-408 in plasma and tissue homogenates. Before analysis, tissue samples were homogenized in phosphate-buffered saline, pH 7.4 (1:4, w/v) with a tissue homogenizer (TH220; Omni International, Inc., Warrenton, VA, USA). Plasma (100 μL) or homogenate samples (500 μL) were mixed with an internal standard (IS) solution (R-( +)-propranolol, 4 μg/mL in methanol). Then, 20 μL of sodium carbonate (0.125 M) was added to each tube and the samples were extracted with 3 mL of diethyl ether by vortexing for 1 min. After centrifugation (3000 rpm, 15 min), the organic phase was transferred to a new tube and evaporated to dryness under a gentle stream nitrogen at 37 °C in a water bath. The dry residue was reconstituted in 100 μL of acetonitrile. Subsequently, 50 μL of 0.2 M borate buffer (pH = 7.0) and 50 μL of 6 mM FMOC-Cl solution in acetonitrile were added. After vortex-mixing for 1 min, the samples were kept for 30 min at 40 °C in a dry heat sterilizer (model MOV-112S, Sanyo, Japan). The reaction was stopped by the addition of 0.1 M solution of glycine in water (30 μL) and vortexing for 1 min. The reaction mixture was transferred directly into the autosampler vials. The chromatographic system (Merck-HITACHI, Japan) consisted of an L-2485 spectrofluorimetric detector operating at the excitation and emission wavelengths of 267 and 316 nm, respectively, an L-2130 pump, an L-2350 column oven, and an L-2200 autosampler. The EZChrom Elite Client/Server version 3.2 (Agilent Technologies Inc.) was used for data acquisition and processing. […] The column temperature was maintained at 50 °C. The mobile phase consisted of a mixture of acetonitrile and water (67:33, v/v), and pumped at a flow rate of 1 mL/min.
Pharmacokinetic data analysis. Plasma and tissue concentration versus time profiles were analyzed by the non-compartmental approach in Phoenix WinNonlin v. 6.3 software (Pharsight Corporation, Mountain View, CA, USA). The peak concentration (Cmax) and the time to reach Cmax (tmax) were obtained directly from individual concentration–time profiles. The initial concentration (C0) after an iv dosing was obtained by extrapolation to zero time. The linear trapezoidal rule was applied to calculate the areas under the concentration–time curve (AUC) from the time of dosing to the last measured data point (AUC0-t) or infinity (AUC0-∞). The terminal slope (λz) was estimated by linear regression and the terminal half-life (t0.5λz) was calculated as ln2/λz. The volume of distribution based on the terminal phase (Vz) was calculated as: Dose/(λz ∙ AUC0-∞), whereas clearance (CL) was obtained from the following equation: Dose/AUC0-∞. The mean residence time (MRT) was defined as: AUMC0-∞/AUC0-∞, where AUMC is the area under the first moment curve. The absolute bioavailability (Fa) was calculated according to the equation: (AUCpo./Dosepo)/(AUCiv/Doseiv).

hNav1.1 sodium channel = molecular target: T2, hNav1.1 sodium channel (Homo sapiens, UniProt P35498); test: Nav channel electrophysiology (IonWorks Quattro); type: cell-based
T2 construct: host or cells: CHO cells

T1 sequence (P35499 whole entry): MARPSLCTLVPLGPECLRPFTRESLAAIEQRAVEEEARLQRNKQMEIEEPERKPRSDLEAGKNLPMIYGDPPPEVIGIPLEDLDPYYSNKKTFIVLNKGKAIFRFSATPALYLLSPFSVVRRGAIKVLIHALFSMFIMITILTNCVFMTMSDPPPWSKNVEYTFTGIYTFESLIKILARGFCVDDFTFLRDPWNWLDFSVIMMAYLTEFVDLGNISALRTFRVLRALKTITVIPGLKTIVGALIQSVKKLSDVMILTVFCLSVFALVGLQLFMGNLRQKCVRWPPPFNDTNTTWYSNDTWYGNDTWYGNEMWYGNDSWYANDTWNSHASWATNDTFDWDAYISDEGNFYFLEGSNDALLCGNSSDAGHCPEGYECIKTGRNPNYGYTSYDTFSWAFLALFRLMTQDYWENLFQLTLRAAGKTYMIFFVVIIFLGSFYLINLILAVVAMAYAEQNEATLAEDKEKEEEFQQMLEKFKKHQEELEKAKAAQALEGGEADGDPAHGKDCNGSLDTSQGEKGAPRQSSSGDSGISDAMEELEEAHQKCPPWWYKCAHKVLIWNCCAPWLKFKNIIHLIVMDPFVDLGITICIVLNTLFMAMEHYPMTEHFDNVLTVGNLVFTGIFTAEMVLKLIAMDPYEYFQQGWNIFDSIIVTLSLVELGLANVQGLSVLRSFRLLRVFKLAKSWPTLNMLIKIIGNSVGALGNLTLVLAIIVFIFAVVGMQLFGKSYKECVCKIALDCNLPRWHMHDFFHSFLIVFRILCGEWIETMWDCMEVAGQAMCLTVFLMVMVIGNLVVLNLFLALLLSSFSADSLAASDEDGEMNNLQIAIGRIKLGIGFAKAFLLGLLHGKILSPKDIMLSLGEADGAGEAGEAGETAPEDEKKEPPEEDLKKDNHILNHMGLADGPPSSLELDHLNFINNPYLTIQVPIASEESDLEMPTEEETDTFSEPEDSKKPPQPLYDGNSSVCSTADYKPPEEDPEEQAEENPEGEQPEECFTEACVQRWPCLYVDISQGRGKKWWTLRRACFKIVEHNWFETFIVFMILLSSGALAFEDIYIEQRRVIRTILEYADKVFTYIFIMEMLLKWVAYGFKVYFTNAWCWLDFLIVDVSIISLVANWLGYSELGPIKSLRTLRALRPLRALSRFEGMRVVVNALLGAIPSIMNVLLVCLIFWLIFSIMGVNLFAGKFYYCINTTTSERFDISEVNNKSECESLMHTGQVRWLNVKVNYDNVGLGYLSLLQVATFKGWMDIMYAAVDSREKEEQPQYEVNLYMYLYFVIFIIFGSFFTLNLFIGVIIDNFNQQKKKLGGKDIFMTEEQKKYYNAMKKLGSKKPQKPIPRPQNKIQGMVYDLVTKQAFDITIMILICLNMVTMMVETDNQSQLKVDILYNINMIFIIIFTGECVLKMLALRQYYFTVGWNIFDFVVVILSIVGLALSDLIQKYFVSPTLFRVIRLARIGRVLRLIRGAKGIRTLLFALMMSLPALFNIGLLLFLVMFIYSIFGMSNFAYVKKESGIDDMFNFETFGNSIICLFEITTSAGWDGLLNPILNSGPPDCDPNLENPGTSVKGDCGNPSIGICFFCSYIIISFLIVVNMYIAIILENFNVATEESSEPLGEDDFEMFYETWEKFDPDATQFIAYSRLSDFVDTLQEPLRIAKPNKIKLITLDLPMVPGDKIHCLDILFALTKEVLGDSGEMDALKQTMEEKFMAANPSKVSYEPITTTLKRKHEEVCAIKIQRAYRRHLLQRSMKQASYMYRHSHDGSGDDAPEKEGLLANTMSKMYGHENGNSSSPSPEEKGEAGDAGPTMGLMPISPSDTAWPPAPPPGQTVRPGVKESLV

CCC(CO)NCCOc1c(C)cccc1Cl (centres unmarked) [Compound 4, R,S-2-((2-(2-chloro-6-methylphenoxy)ethyl)amino)butan-1-ol]
LTG-resistant amygdala seizures: active at (rats [1]): 15 mg/kg | Rotarod TD50 (mice; female mice): 40.11 (36.49–42.98) mg/kg | Rotarod TD50 (mice; mice): 54.99 (52.95–56.94) mg/kg | TD97 (rats [2]): 40.53 mg/kg | Pilocarpine-induced status epilepticus prevention: result (rats [2]; at 40 mg/kg): no activity

CCC(CO)NCCOc1c(C)cccc1Cl (centres unmarked) [KM-408, R,S-2-((2-(2-chloro-6-methylphenoxy)ethyl)amino)butan-1-ol hydrochloride]
TD50 [3]: 64.3 mg/kg | elevation of pain threshold (von Frey) (STZ-treated mice; 1 mg/kg): 132% | elevation of pain threshold (von Frey) (STZ-treated mice; 10 mg/kg): 125% | STZ-induced pain (von Frey): active at (STZ-treated mice; mice, ip): 1 mg/kg | IC50 (hNav1.4 sodium channel; 10 Hz): 8.17 µM | IC50 (hNav1.4 sodium channel; Inactivated state): < 10 µM | IC50 (hNav1.4 sodium channel; Tonic block): 68 µM | plasma concentration ([4]; 5 mg/kg iv, immediately after administration): 1.48*10^–5 M | bioavailability ([4]; 50 mg/kg, po 50 mg/kg, read-out: F): 3.9% | bioavailability ([4]; 100 mg/kg, po 100 mg/kg, read-out: F): 3.6% | bioavailability ([4]; 100 mg/kg, po 50 and 100 mg/kg, read-out: absolute bioavailability): 3.6 to 3.9% | AUC(0-t) ([4]; iv 1 mg/kg): 207 ng·h/mL | C0 ([4]; iv 1 mg/kg): 371 ng/mL | MRT ([4]; iv 1 mg/kg): 51.7 min | clearance ([4]; iv 1 mg/kg): 80 mL/min/kg | Vd ([4]; iv 1 mg/kg): 2.53 L/kg | k el ([4]; iv 1 mg/kg): 0.000533 s⁻¹ | AUC(0-t) ([4]; iv 5 mg/kg): 1210 ng·h/mL | C0 ([4]; iv 5 mg/kg): 4360 ng/mL | MRT ([4]; iv 5 mg/kg): 43.5 min | clearance ([4]; iv 5 mg/kg): 70 mL/min/kg | Vd ([4]; iv 5 mg/kg): 3.77 L/kg | k el ([4]; iv 5 mg/kg): 0.0003 s⁻¹ | AUC(0-t) ([4]; iv 10 mg/kg): 2720 ng·h/mL | C0 ([4]; iv 10 mg/kg): 5330 ng/mL | MRT ([4]; iv 10 mg/kg): 42.3 min | clearance ([4]; iv 10 mg/kg): 60 mL/min/kg | Vd ([4]; iv 10 mg/kg): 2.3 L/kg | k el ([4]; iv 10 mg/kg): 0.00045 s⁻¹ | AUC(0-t) ([4]; po 50 mg/kg): 430 ng·h/mL | CL/F ([4]; po 50 mg/kg): 1950 mL/min/kg | Cmax ([4]; po 50 mg/kg): 313 ng/mL | MRT ([4]; po 50 mg/kg): 79.1 min | Tmax ([4]; po 50 mg/kg): 30 min | Vd/F ([4]; po 50 mg/kg): 80.3 L/kg | k el ([4]; po 50 mg/kg): 0.000383 s⁻¹ | AUC(0-t) ([4]; po 100 mg/kg): 807 ng·h/mL | CL/F ([4]; po 100 mg/kg): 2060 mL/min/kg | Cmax ([4]; po 100 mg/kg): 573 ng/mL | MRT ([4]; po 100 mg/kg): 83 min | Tmax ([4]; po 100 mg/kg): 30 min | Vd/F ([4]; po 100 mg/kg): 104 L/kg | k el ([4]; po 100 mg/kg): 0.000333 s⁻¹ | t0.5λz ([4]; iv 1 mg/kg): 21.80 min | t0.5λz ([4]; iv 5 mg/kg): 37.94 min | t0.5λz ([4]; iv 10 mg/kg): 26.02 min | t0.5λz ([4]; po 50 mg/kg): 30.59 min | t0.5λz ([4]; po 100 mg/kg): 34.98 min | IC50 (hNav1.1 sodium channel; 10 Hz): 17.5 µM | IC50 (hNav1.1 sodium channel; Inactivated state): < 10 µM | IC50 (hNav1.1 sodium channel; Tonic block): 64.2 µM

— PMC9889419 (Pharmacological Reports, 2022)
